A word on the IC50: it is the concentration that gives 50% inhibition.

Common to all, as to type: binding, mice
Experiment [1] has as its system antibodies generated from vaccination with hapten 1. Kind of experiment: Competitive ELISA, day 35 pooled sera of hapten 1 vaccine group. Conditions: for % Inhibition, HAPTEN 1: SCRA at 10 μM; for % Inhibition, HAPTEN 1 / IC50: day 35 pooled sera; for reactivity of hapten 1 antibodies (in words): day 35 sera; for IC50: 11 concentrations. As to the method:
(§1) Vaccination: Vaccine formulation consisted of our bioconjugates at 1 mg/mL (100 μg/mouse), Alum (50 μg/mouse) and a 1 mg/mL CpG ODN 1826 (50 μg/mouse) in 1X PBS solution. Vaccines were shaken at 4 °C for 45 min prior to animal use. Mock vaccines consisted of the same components with the bioconjugate replaced with native KLH. All animals were vaccinated on day zero and received two boosts, one on day 14 and one on day 28. Sera was collected from each animal on days 21 and 35 via retroorbital blood draws.
(§2) Antibody Titers: Costar® 96-well plates were coated with 25 μL of a 5 μg/mL solution of hapten-BSA conjugate and incubated overnight at 37 °C. Plates were then methanol fixed and non-specific protein binding was blocked with 5% Blotto for 30 min. Pooled sera from either day 21 (1:100 in 5% blotto) or 35 (1:400) were added and serially diluted across the plate before incubating at 37 °C for 60 min. Plates were then washed with 1X PBS prior to the addition of secondary antibody conjugated to horse-radish peroxidase, which incubated at 37 °C for 30 min. Equal parts tetramethylbenzidine and hydrogen peroxide (50 μL) were added to each well and reacted for 15 min before being quenched with 50 μL of 2M sulfuric acid. Optical densities were determined at 450 nm using MiniMax 300 plate reader (Molecular Devices). Lastly, midpoint titers were calculated from the % optical density versus log(dilution) using the log(inhibition) vs response variable slope equation on GraphPad Prism v9 (San Diego, CA, USA).
(§3) Competitive ELISA: Costar® 96-well plates were coated as described in the antibody titer section. After the plates are blocked, 25 μL of a 1:titer solution of each BSA-hapten conjugate is added to every well. Equal volume of a 40 μM solution of each SCRA is then added to column one, and 1:2 serially diluted concentrations added across the wells. Optical densities were determined as in titer experiments, and percent inhibitions were evaluated with GraphPad Prism 9 as in titer experiments.
On the technique in general: An ELISA detects its analyte on a solid surface through an enzyme-linked reagent.

For experiment [2], the system named is antibodies generated following vaccination with hapten 4. In words: Competitive ELISA, day 35 pooled sera of hapten 4 vaccine group. As to conditions: for % Inhibition, HAPTEN 4: SCRA at 10 μM; for % Inhibition, HAPTEN 4 / IC50: day 35 pooled sera; for IC50: 11 concentrations; for binding by hapten 4 antibodies (in words): day 35 sera. As to the method: as §1, §2, §3

Experiment [3] relates to antibodies generated following vaccination with hapten 3. In words: Competitive ELISA, day 35 pooled sera of hapten 3 vaccine group. Conditions: for % Inhibition, HAPTEN 3: SCRA at 10 μM; for % Inhibition, HAPTEN 3 / IC50: day 35 pooled sera; for IC50: 11 concentrations; for binding by hapten 3 antibodies (in words): day 35 sera. As to the method: as §1, §2, §3
In experiment [4] the test system is antibodies generated from vaccination with hapten 2. In words: Competitive ELISA, day 35 pooled sera of hapten 2 vaccine group. Conditions: for % Inhibition, HAPTEN 2: SCRA at 10 μM, day 35 pooled sera. As to the method:
as §1, §2, §3

As to `CCCCCn1cc(C(=O)Oc2cccc3ccccc23)c2ccccc21` [Compound 8, NAPIC], in experiment [1], the “% Inhibition, HAPTEN 1” value was found to be 13.6% and the “reactivity of hapten 1 antibodies (in words)” value is on record as “no reactivity”. Further, the “% Inhibition, HAPTEN 4” value in experiment [2] is given as 11.0%. Further, the “% Inhibition, HAPTEN 3” value in experiment [3] amounted to 19.2%. Also, in experiment [4], the “% Inhibition, HAPTEN 2” value was 31.5%. In experiment [4] (day 35 sera), the “reactivity of hapten 2 antibodies (in words)” value is given as “little to no reactivity”.

As to `CCCCCn1cc(C(=O)c2cccc3ccccc23)c2ccccc21` [Compound 1, JWH-018], in experiment [1], the “% Inhibition, HAPTEN 1” value is on record as 60.0%; the IC50 came out at 5540 nM; the “reactivity of hapten 1 antibodies (in words)” value is “micromolar”. Further, in experiment [2], the “% Inhibition, HAPTEN 4” value amounted to 10.9%. The “% Inhibition, HAPTEN 3” value in experiment [3] came to 14.6%. Also, the “% Inhibition, HAPTEN 2” value in experiment [4] is 17.7%.

As to `COC(=O)C(NC(=O)c1cn(CCCCCF)c2ccccc12)C(C)C` (centres unmarked) [Compound 4], the “% Inhibition, HAPTEN 1” value in experiment [1] came to 8.8%. Besides, in experiment [2], the “% Inhibition, HAPTEN 4” value came to 54.3%; the IC50 was determined as 6690 nM; the “binding by hapten 4 antibodies (in words)” value is listed as “bind”. In experiment [3], the “% Inhibition, HAPTEN 3” value is reported as 69.0%; the IC50 was found to be 744 nM; the “binding by hapten 3 antibodies (in words)” value was “micromolar to sub-micromolar”. In addition, the “% Inhibition, HAPTEN 2” value in experiment [4] came out at 19.9%.

For the compound `CCCCCn1cc(C(=O)NC(C(=O)OC)C(C)C)c2ccccc21` (centres unmarked) [Compound 3, MMB-PICA], the “% Inhibition, HAPTEN 1” value in experiment [1] was found to be 0.0%. Moreover, in experiment [2], the “% Inhibition, HAPTEN 4” value was found to be 71.0%; the IC50 turned out to be 1260 nM; the “binding by hapten 4 antibodies (in words)” value is recorded as “bind”. Besides, in experiment [3], the “% Inhibition, HAPTEN 3” value was 91.8%; the IC50 is 38 nM; the “binding by hapten 3 antibodies (in words)” value is reported as “micromolar to sub-micromolar”. Further, the “% Inhibition, HAPTEN 2” value in experiment [4] stood at 15.2%.

Consider `O=C(c1cccc2ccccc12)c1cn(CCCCCF)c2ccccc12` [Compound 2, AM-2201], for which, in experiment [1], the “% Inhibition, HAPTEN 1” value is 79.3%; the IC50 was found to be 1140 nM; the “reactivity of hapten 1 antibodies (in words)” value was “micromolar”. In addition, in experiment [1] (compared with IC50 against compound 1), the “IC50 for hapten 1 relative to compound 1” value is “approximately five times lower”. Further, in experiment [2], the “% Inhibition, HAPTEN 4” value was 14.4%. For the same compound, in experiment [3], the “% Inhibition, HAPTEN 3” value was determined as 18.0%. Moreover, in experiment [4], the “% Inhibition, HAPTEN 2” value came out at 29.5%.

As for `COC(=O)C(NC(=O)c1nn(Cc2ccc(F)cc2)c2ccccc12)C(C)C` (centres unmarked) [Compound 7, AMB-FUBINACA], the “% Inhibition, HAPTEN 1” value in experiment [1] was determined as 11.1%. Besides, in experiment [2], the “% Inhibition, HAPTEN 4” value came to 77.7%; the IC50 worked out at 966 nM; the “binding by hapten 4 antibodies (in words)” value is “sub-micromolar”. Also, in experiment [3], the “% Inhibition, HAPTEN 3” value was 76.0%; the concentration for half-maximal inhibition (IC50) is 299 nM; the “binding by hapten 3 antibodies (in words)” value is “sub-micromolar”. Further, in experiment [4], the “% Inhibition, HAPTEN 2” value is 30.7%.

Take `COC(=O)C(NC(=O)c1nn(CCCCCF)c2ccccc12)C(C)C` (centres unmarked) [Compound 6, 5F-AMB]: the “% Inhibition, HAPTEN 1” value in experiment [1] came to 16.8%. Besides, in experiment [2], the “% Inhibition, HAPTEN 4” value is on record as 63.9%; the IC50 amounted to 2660 nM; the “binding by hapten 4 antibodies (in words)” value is “bind”. Moreover, in experiment [3], the “% Inhibition, HAPTEN 3” value stood at 57.4%; the IC50 was determined as 3320 nM; the “binding by hapten 3 antibodies (in words)” value was “micromolar to sub-micromolar”. Moreover, in experiment [4], the “% Inhibition, HAPTEN 2” value turned out to be 28.7%.

Consider `CCCCCn1nc(C(=O)NC(C(=O)OC)C(C)C)c2ccccc21` (centres unmarked) [Compound 5, MMB-PINACA], for which the “% Inhibition, HAPTEN 1” value in experiment [1] came out at 6.9%. Also, in experiment [2], the “% Inhibition, HAPTEN 4” value came to 85.5%; the IC50 came to 334 nM; the “binding by hapten 4 antibodies (in words)” value is recorded as “bind”. Further, in experiment [3], the “% Inhibition, HAPTEN 3” value is on record as 82.6%; the IC50 was 269 nM; the “binding by hapten 3 antibodies (in words)” value is given as “micromolar to sub-micromolar”. Also, the “% Inhibition, HAPTEN 2” value in experiment [4] came to 25.5%.
